From patent US20230310573A1, “Stabilized Vaccine Compositions” (priority 2020, published 2023)

Experiments:
[1] = target: ectodomain of H1N1 A/Brisbane/59/2007 (SEQ ID NO: 7) (Influenza A virus, UniProt P03452); assay: Heat stress of influenza A HA ectodomain, trimer and monomer content by analytical SEC; type: physicochemical; conditions: 6 weeks at 40 degree Celsius; 1:6 HA trimer:compound ratio
[2] = target: T1, UFV170091 (HA of B/Massachussetts/2/12) (Influenza B virus, UniProt P03460); assay: Melting temperature (Tm50) of influenza B HA trimer by DSF; type: physicochemical; conditions: 1:6 HA trimer:compound ratio
T1 construct: Ectodomain of wild type HA of B/Massachussetts/2/12 fused to a foldon domain at the C-terminus; His-tag (C); made in house; host or cells: ExpiCHO

[3] = target: UFV180933 (HA of B/Brisbane/60/08) (Influenza B virus, UniProt P03460); type: cell-based; conditions: 1:90 HA trimer:compound ratio
[4] = target: T2, UFV180300 (HA of B/Colorado/06/2017) (Influenza B virus, UniProt P03460); assay: Melting temperature (Tm50) of influenza B HA trimer by DSF; type: physicochemical; conditions: 1:6 HA trimer:compound ratio
T2 construct: SortA (sortase) tag (C); His-tag (C); made in house; host or cells: ExpiCHO

SMILES	trimer content after heat stress (SEC) [1]	increase of the Tm (DSF) [2] [°C]	monomer and trimer content in supernatant (SEC) [3]	increase of the Tm (DSF) [4] [°C]
N#CCCCn1c(CN2C(=O)C3(CN(C(=O)C4(O)CC4)C3)c3ccccc32)cc2cc(Cl)ccc21 [Compound XV, 4-[5-chloro-2-[[1-(1-hydroxycyclopropanecarbonyl)-2′-oxo-spiro[azetidine-3,3′-indoline]-1′-yl]methyl]indol-1-yl]butanenitrile]	preserved the trimer content	–	–	–
c1ccc(CN2CCC(Nc3ccccc3)(c3ccccc3)CC2)cc1 [XXVII, 1-benzyl-N,4-diphenyl-piperidin-4-amine]	–	0.5	hardly monomer and mostly trimer	1
